Test results from patent US9447033B2, “Potassium channel blockers” (Japan Tobacco Inc., priority 2008, dated 2016).

Key:
[1] = target: T1, human Kv1.3 (Homo sapiens, UniProt P22001); assay: Kv1.3 Autopatch electrophysiology (whole cell); assay type: cell-based; details: compound at 1 μM; inhibition of charge movement relative to control; room temperature; read-out: hKv1.3 % Inh.
T1 construct: expressed in transfected cells
Description: Kv1.3 Autopatch Electrophysiology Method
Cells stably transfected with cDNA for human Kv1.3 (in pcDNA3.1) were grown in Ex-cell 302 serum-free medium for CHO cells, supplemented with 10 μl/ml [100×] glutamine, 500 μg/ml G418 ([…]), and 1% HT supplement (50×, hypoxanthine and thymidine). Compounds were tested on these cells using the AutoPatch technology in whole cell mode.
The external bathing solution contained (in mM): 150 NaCl, 10 KCl, MgCl2, 3 CaCl2, 10 HEPES, pH 7.4 with NaOH. Patch pipettes were filled with an electrode solution of composition (in mM): 100 K-Gluconate, 20 KCl, 1 MgCl2, CaCl2, 10 HEPES, 11 EGTA, 5 ATP-Na2, 2 Glutathione pH 7.2 with KOH.
Compounds were dissolved in DMSO (100%) and made up in the external bather at a concentration of 1 μM immediately prior to use. All experiments were conducted at room temperature.
A cell suspension (10 ml), with a density of 6×10^6 cells, was aliquoted into a 15 ml centrifuge tube and stored at 4° C. before use. Prior to use a tube was taken and centrifuged at 1000 rpm for 4 mins at room temperature. The supernatant was then discarded, leaving a cell pellet at the bottom of the tube. The pellet was then resuspended using 1 ml of cold (4° C.), filtered (0.22 μm), 0.05% BSA/bather solution (0.05 g BSA/100 ml bather). The bottom of the tube was manually agitated followed by gentle tituration. The cell suspension was then placed in the AutoPatch™ temperature controlled cell-hotel at 14° C. and regularly titurated.
A length of Teflon capillary tubing was dipped into the cell suspension solution, and a column of fluid was taken up by negative pressure. The column of fluid was in electrically connectivity with a Ag/AeCl reference electrode. Borosilicate glass patch pipettes (from 1.5 mm OD, thin-walled filamented, GC150-TF capillary glass, Harvard) were pulled using a DMZ pipette puller (Zeitz Instruments), and were back-filled using the internal pipette solution, being careful that no bubbles remained at the tip or in the body of the pipette. Patch pipettes typically had resistances of 2.5-3.5 MΩ. Once filled, the pipette tip and a proportion of the shaft (˜15 mm) were dipped into Sigmacote (Sigma). The recording pipettes were placed in a multiwell array and mounted on the AutoPatch™ machine. Automated patch-clamping and drug-application was initiated by the operator, but thereafter AutoPatch.exe continued the experiment providing that pre-set conditions and criteria were satisfied.
Whole cell patch-clamp recordings were made using the AutoPatch™ rig, which incorporated an EPC9 or EPC10 amplifier (HEKA, Germany) under control of Pulse software (v8.54 or v8.76, HEKA, Germany), a cell applicator, automated drug application system (DAS), valve controller (VFI) and a suction device all at room temperature. This equipment was completely under the control of AutoPatch.exe and operator intervention was only made when there was a requirement to refill the bather reservoirs or to prevent the loss of a cell due to a technical error. […]
Electrophysiology voltage-step protocols and analysis of data was performed as follows. […] Online analysis of the hKv1.3 current during the application of compounds was performed by the Pulse (v8.54 or v8.76, HEKA, Germany), Excel (Microsoft, USA) and AutoPatch™ software, with the total charge measured during the whole of voltage step. Inhibition of charge movement in the presence of drug was calculated relative to control.

[2] = target: hKv1.5 (Homo sapiens, UniProt P22460); assay: Kv1.5 Autopatch electrophysiology (whole cell); assay type: cell-based; details: hKv1.5 current, test concentration not given, read-out: hKv1.5 % Inh.
Description: Kv1.5 Autopatch Electraphysiogogy Method
The external bathing solution contained (in mM): 150 NaCl, 10 KCl, […], 3 MgCl2, 1 CaCl2, 10 HEPES, pH 7.4. Patch pipettes were filled with an electrode solution of composition (in mM): 160 KCl, 0.5 MgCl2, 10 HEPES, 1 EGTA, pH 7.4 with KOH.
Compounds were dissolved in DMSO (100%) and made up in the external bather at a concentration of 1 μM. All experiments were conducted at room temperature (22-24° C.).
A cell suspension (10 ml), with a density of 100,000 cells/ml, was aliquoted into a 15 ml centrifuge tube and transferred to an incubator (37° C., 5% CO2) for approximately one hour before use. Following 60 min incubation, a tube was taken and centrifuged at 1000 rpm for 4 mins at mom temperature. 9.5 ml supernatant was thence discarded, leaving a cell pellet a the bottom of the tube. The pellet was then resuspended using 100 μl of cold (4° C.), filtered (0.22 μm), 0.2% BSA/bather solution (0.02 g BSA/10 ml bather). The bottom of the tube was manually agitated gently until the solution became cloudy with cells. The 100 μl cell resuspension solution was then stored on the bench at 4° C. (using a Peltier-based temperature control device) until used.
A length of capillary glass (1B150F-4, WPI) was dipped into the cell suspension solution, such that ˜3 cm column of fluid was taken up by capillary action. A Ag/AgCl wire was dropped into the non-dipped end of the capillary also. The outside of the solution-filled end of the capillary was then dried and the capillary was loaded into the AutoPatch™.
Borosilicate glass patch pipettes (from 1.5 mm OD, thin-walled filamented, GC150-TF capillary glass, Harvard) were pulled using a DMZ pipette puller (Zeitz instruments), and were back-filled using the internal pipette solution, being careful that no bubbles remain at the tip or in the body of the pipette. Patch pipettes typically had resistances of 2.3-3.5 MΩ. Once filled, the pipette tip and a proportion of the shaft (˜15 mm) were dipped into Sigmacote (Sigma). The recording pipette was then loaded into the AutoPatch™. Automated patch-clamping was initiated by the operator, but thereafter AutoPatch.exe continued the experiment providing that pre-set conditions and criteria were satisfied.
Whole cell patch-clamp recordings were made using the AutoPatch™ rig, which incorporated an EPC9 amplifier (HEKA, Germany) under control of Pulse software (v8.54, HEKA, Germany), a motion controller with 2 translators (Newport, UK), valve controller (VFI) and a c-level suction device all at room temperature (22-24° C.). This equipment was completely under the control of AutoPatch.exe and operator intervention was only made when there was a requirement to refill the drug reservoirs or to prevent the loss of a cell due to a technical error. Cells with an Rseries greater than 18 MΩ were discounted from the experiment.
Qualification stages prior to perfusion and drug application ensured that the observed current met the criteria for the experiment. Only those cells with an 1K>500 pA were used for experiments. Cells were continuously perfused with external solution at a flow rate of 1.8-2 ml/minute. […]
Electrophysiology voltage-step protocols and analysis of data was performed as follows. […] Currents were analysed using Pulsefit software (v8.54, HEKA, Germany), with the total charge measured during the whole of the voltage step. […]

T1 sequence (P22001 whole entry): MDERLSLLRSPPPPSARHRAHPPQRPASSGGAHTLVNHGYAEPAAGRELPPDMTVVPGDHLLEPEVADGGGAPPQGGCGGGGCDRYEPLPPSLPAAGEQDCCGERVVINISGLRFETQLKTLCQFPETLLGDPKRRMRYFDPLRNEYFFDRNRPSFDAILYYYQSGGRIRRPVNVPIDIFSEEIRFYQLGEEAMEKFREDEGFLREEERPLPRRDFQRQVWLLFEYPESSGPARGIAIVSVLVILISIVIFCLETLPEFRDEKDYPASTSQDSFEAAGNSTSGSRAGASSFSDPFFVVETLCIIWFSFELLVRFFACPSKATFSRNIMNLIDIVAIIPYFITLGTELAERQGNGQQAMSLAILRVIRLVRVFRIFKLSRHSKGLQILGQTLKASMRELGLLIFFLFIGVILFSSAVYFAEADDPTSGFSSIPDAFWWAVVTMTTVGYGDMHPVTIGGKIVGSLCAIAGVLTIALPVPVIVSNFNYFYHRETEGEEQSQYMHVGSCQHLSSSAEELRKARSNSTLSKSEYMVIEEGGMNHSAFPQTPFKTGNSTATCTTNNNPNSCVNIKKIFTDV
hKv1.5, sequence (P22460 whole entry): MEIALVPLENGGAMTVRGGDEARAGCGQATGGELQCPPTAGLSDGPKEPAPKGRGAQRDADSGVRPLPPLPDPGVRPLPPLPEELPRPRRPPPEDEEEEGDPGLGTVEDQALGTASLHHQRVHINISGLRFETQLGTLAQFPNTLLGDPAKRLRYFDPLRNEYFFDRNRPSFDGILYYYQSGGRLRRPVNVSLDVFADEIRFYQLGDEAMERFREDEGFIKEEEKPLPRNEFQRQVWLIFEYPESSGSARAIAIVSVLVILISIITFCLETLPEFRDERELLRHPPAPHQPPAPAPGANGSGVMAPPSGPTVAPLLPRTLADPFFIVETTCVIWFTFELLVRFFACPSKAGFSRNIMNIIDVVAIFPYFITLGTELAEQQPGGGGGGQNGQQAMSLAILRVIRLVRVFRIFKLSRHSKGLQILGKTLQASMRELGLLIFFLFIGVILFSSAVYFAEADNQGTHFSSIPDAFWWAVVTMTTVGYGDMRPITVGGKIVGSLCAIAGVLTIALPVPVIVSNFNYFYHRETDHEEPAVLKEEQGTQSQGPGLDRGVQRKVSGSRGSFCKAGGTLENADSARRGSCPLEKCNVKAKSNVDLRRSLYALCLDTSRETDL

SMILES | inhibition at 1 µM [1] [%] | inhibition at 1 µM [2] [%]
CC(C)NC(=O)c1cccc(N(Cc2ccccc2)S(=O)(=O)c2cccnc2)c1 [Example 3, 3-[Benzyl-(pyridine-3-sulfonyl)-amino]-N-isopropyl-benzamide] | 92 | 52
O=C(Nc1ccc2cn[nH]c2c1)c1cccc(N(Cc2ccccc2)S(=O)(=O)c2ccccc2)c1 [Example 4, 3-(Benzenesulfonyl-benzyl-amino)-N-(1H-indazol-6-yl)-benzamide] | 88 | 99
CC(=O)Nc1ccc(S(=O)(=O)N(Cc2ccccc2)c2cccc(C(=O)NC(C)C)c2)cc1 [Example 5, 3-[(4-Acetylamino-benzenesulfonyl)-benzyl-amino]-N-isopropyl-benzamide] | 45 | 18

Continued, values first:

inhibition at 1 µM [1] [%] | inhibition at 1 µM [2] [%] | SMILES
86 | 48 | Cn1ccc(S(=O)(=O)N(Cc2ccc(Cl)cc2)c2cccc(C(=O)NCCO)c2)n1 [Example 1, 3-[(4-Chloro-benzyl)-(1-methyl-1H-pyrazole-3-sulfonyl)-amino]-N-(2-hydroxy-ethyl)-benzamide]
57 | 54 | CC(C)NC(=O)c1cccc(N(Cc2ccc(Cl)cc2)S(=O)(=O)c2ccnn2C)c1 [Example 7, 3-[(4-Chloro-benzyl)-(2-methyl-2H-pyrazole-3-sulfonyl)-amino]-N-isopropyl-benzamide]
